Values quoted from earlier work as cited in patent publication US8956669B2, “Anticancer and antimicrobial compounds from antarctic extremophilic microorgansims” (priority 2009, dated 2015).
Marks after values point to notes of the source that are not given here.

Legend:
Mycobacterium smegmatis = details: literature values, Table 2
[1] = system: Mycobacterium tuberculosis; details: literature values, Table 2

| Compound | MIC against Mycobacterium smegmatis (Mycobacterium smegmatis) | MIC against Mycobacterium tuberculosis [1] |
| --- | --- | --- |
| CN(C)CCCN1c2ccccc2Sc2ccc(Cl)cc21 [Chlorpromazine] | 64^a μg/ml | – |
| O=c1c(-c2ccc(O)cc2)coc2cc(O)cc(O)c12 [Genistein] | 256^a μg/ml | – |
| O=c1c(O)c(-c2cc(O)c(O)c(O)c2)oc2cc(O)cc(O)c12 [Myricetin] | 32^a μg/ml | – |
| Laburnetin | – | 4.88^e μg/ml |
| COC(=O)[C@H]1[C@H]2C[C@@H]3c4[nH]c5cc(OC)ccc5c4CCN3C[C@H]2C[C@@H](OC(=O)c2cc(OC)c(OC)c(OC)c2)[C@@H]1OC [Reserpine] | 128^a μg/ml | – |
| CO[C@H]1/C=C/O[C@@]2(C)Oc3c(C)c(O)c4c(O)c(c(/C=N/N5CCN(C)CC5)c(O)c4c3C2=O)NC(=O)/C(C)=C\C=C\[C@H](C)[C@H](O)[C@@H](C)[C@@H](O)[C@@H](C)[C@H](OC(C)=O)[C@@H]1C [Rifampcin] | 1^b μg/ml | 0.1^f μg/ml |
| Oc1ccc(C=Cc2cc(O)cc(O)c2)cc1 [Resveratrol] | 64^a μg/ml | – |
| NNC(=O)c1ccncc1 [Isoniazid] | 5^b μg/ml | 0.1^f μg/ml |
| O=C(O)[C@H]1O[C@@H](Oc2cc3oc(-c4ccccc4)cc(=O)c3c(O)c2O)[C@H](O)[C@@H](O)[C@@H]1O [Baicalin] | 256^a μg/ml | – |
| O=c1cc(-c2ccccc2)oc2cc(O)c(O)c(O)c12 [Baicalein] | 64^a μg/ml | – |
| Cc1cc(O)c2c(c1)C(=O)c1c(oc3c1c(=O)oc1cccc(C)c13)C2=O [crassiflorone] | 1.22^l μg/ml | 39.06^l μg/ml |
| C=CCS[S+]([O-])CC=C (stereo not drawn) [Allicin] | – | 25^k μg/ml |
| O=c1cc(-c2ccc(O)c(O)c2)oc2cc(O)cc(O)c12 [Luteolin] | 32^a μg/ml | 200^d μg/ml |
| COc1ccc(CCN(C)CCCC(C#N)(c2ccc(OC)c(OC)c2)C(C)C)cc1OC (stereo not drawn) [Verapamil] | 256^a μg/ml | – |
| Cc1cc(O)c2c(c1)C(=O)C(c1c(C)cc3c(c1O)C(=O)C=CC3=O)=CC2=O [Diospyrin] | 100^j μg/ml | 100^j μg/ml |
| CC1=CC(=O)c2c(O)cccc2C1=O [plumbagin] | 1.22^l μg/ml | 39.06^l μg/ml |
| O=c1cc(-c2ccccc2O)oc2cc(O)cc(O)c12 [5,7,2′-trihydroxyflavone] | 31^h μg/ml | 10^h μg/ml |
| O=c1c(-c2ccc(O)cc2)coc2cc(O)ccc12 [Daidzein] | 256^a μg/ml | – |
| O=C(O)c1cn(C2CC2)c2cc(N3CCNCC3)c(F)cc2c1=O [Ciprofloxacin] | 1^c μg/ml | 0.5^g μg/ml |
| COc1ccc(-c2coc3cc(O)cc(O)c3c2=O)cc1 [Biochanin A] | 256^a μg/ml | – |
| Diospyrone | 1.22^l μg/ml | 39.06^l μg/ml |
